Source: patent US9351960B2 (priority 2012, dated 2016)

Test system: cytopathogenic HCV variant C-13
Test: Antiviral activity in pig embryonic kidney cell (SPEV) cultures infected with HCV
Protocol: Infectious HCV doses used were equal to 10.0 tissue cytopathogenic doses (TCID50)/20 μL.
The used primary fibroblasts highly sensitive to cytopathogenic action of HCV were obtained after trypsinization of 9-day-old chick embryos (FEC), and the used pig embryonic kidney cell (SPEV) cultures were obtained from the Collection of Cell Cultures of the Institute of Virology RAMS. They were used in the form of a one-day cell monolayer grown in 24-well plastic plates. The SPEV and FEC cell cultures were cultured in medium 199 with 10% fetal calf serum, supplemented with glutamine and antibiotics (100 U/ml).
To study the antiviral activity of the drug, a 50 μL of a solution thereof taken in various dilutions were added to the FEC cultures at the time of infection, 24 hours before and 24 hours after infection of the cells.
The infectious activity of HCV was assessed according to the results of titration of fluid samples in the SPEV cell cultures, wherein the culture fluids were derived from the HCV-infected FEC or SPEV cultures on 2 and 5 days after infection. The results were usually registered 6 or 7 days after infection, when the viral cytopathic effect reached its maximum, using the Reed and Muench formula to determine HCV titers.
Samples of the culture medium were taken on Day 3, Day 4 and Day 5 after infection and titrated in fresh SPEV cell cultures.

O=C(O)CCCC(=O)NCCc1c[nH]cn1 [glutaryl histamine]
HCV titers (lg TCID50 for SPEV cell cultures) in medium samples (SPEV, Day 3, 0.005 μg/mL, treatment 24 hours after infection): 0 lg TCID50 | HCV titers (lg TCID50 for SPEV cell cultures) in medium samples (SPEV, Day 3, 0.005 μg/mL, treatment 24 hours before infection): 3.0 lg TCID50 | HCV titers (lg TCID50 for SPEV cell cultures) in medium samples (SPEV, Day 3, 0.005 μg/mL, treatment at the time of infection): 3.3 lg TCID50 | HCV titers (lg TCID50 for SPEV cell cultures) in medium samples (SPEV, Day 3, 0.05 μg/mL, treatment 24 hours after infection): <1.0 lg TCID50 | HCV titers (lg TCID50 for SPEV cell cultures) in medium samples (SPEV, Day 3, 0.05 μg/mL, treatment 24 hours before infection): 3.2 lg TCID50 | HCV titers (lg TCID50 for SPEV cell cultures) in medium samples (SPEV, Day 3, 0.05 μg/mL, treatment at the time of infection): 3.3 lg TCID50 | HCV titers (lg TCID50 for SPEV cell cultures) in medium samples (SPEV, Day 3, 0.5 μg/mL, treatment 24 hours after infection): 0 lg TCID50 | HCV titers (lg TCID50 for SPEV cell cultures) in medium samples (SPEV, Day 3, 0.5 μg/mL, treatment 24 hours before infection): 3.2 lg TCID50 | HCV titers (lg TCID50 for SPEV cell cultures) in medium samples (SPEV, Day 3, 0.5 μg/mL, treatment at the time of infection): 3.3 lg TCID50 | HCV titers (lg TCID50 for SPEV cell cultures) in medium samples (SPEV, Day 3, 5.0 μg/mL, treatment 24 hours after infection): 0 lg TCID50 | HCV titers (lg TCID50 for SPEV cell cultures) in medium samples (SPEV, Day 3, 5.0 μg/mL, treatment 24 hours before infection): 3.5 lg TCID50 | HCV titers (lg TCID50 for SPEV cell cultures) in medium samples (SPEV, Day 3, 5.0 μg/mL, treatment at the time of infection): 2.3 lg TCID50 | HCV titers (lg TCID50 for SPEV cell cultures) in medium samples (SPEV, Day 3, 50.0 μg/mL, treatment 24 hours after infection): 1.25 lg TCID50 | HCV titers (lg TCID50 for SPEV cell cultures) in medium samples (SPEV, Day 3, 50.0 μg/mL, treatment 24 hours before infection): 3.5 lg TCID50 | HCV titers (lg TCID50 for SPEV cell cultures) in medium samples (SPEV, Day 3, 50.0 μg/mL, treatment at the time of infection): 3.5 lg TCID50 | HCV titers (lg TCID50 for SPEV cell cultures) in medium samples (SPEV, Day 3, 500.0 μg/mL, treatment 24 hours after infection): 0 lg TCID50 | HCV titers (lg TCID50 for SPEV cell cultures) in medium samples (SPEV, Day 3, 500.0 μg/mL, treatment 24 hours before infection): 3.5 lg TCID50 | HCV titers (lg TCID50 for SPEV cell cultures) in medium samples (SPEV, Day 3, 500.0 μg/mL, treatment at the time of infection): 3.0 lg TCID50 | HCV titers (lg TCID50 for SPEV cell cultures) in medium samples (SPEV, Day 4, 0.005 μg/mL, treatment 24 hours after infection): 0 lg TCID50 | HCV titers (lg TCID50 for SPEV cell cultures) in medium samples (SPEV, Day 4, 0.005 μg/mL, treatment 24 hours before infection): 3.4 lg TCID50 | HCV titers (lg TCID50 for SPEV cell cultures) in medium samples (SPEV, Day 4, 0.005 μg/mL, treatment at the time of infection): 4.1 lg TCID50 | HCV titers (lg TCID50 for SPEV cell cultures) in medium samples (SPEV, Day 4, 0.05 μg/mL, treatment 24 hours after infection): 1.3 lg TCID50 | HCV titers (lg TCID50 for SPEV cell cultures) in medium samples (SPEV, Day 4, 0.05 μg/mL, treatment 24 hours before infection): 3.0 lg TCID50 | HCV titers (lg TCID50 for SPEV cell cultures) in medium samples (SPEV, Day 4, 0.05 μg/mL, treatment at the time of infection): 4.4 lg TCID50 | HCV titers (lg TCID50 for SPEV cell cultures) in medium samples (SPEV, Day 4, 0.5 μg/mL, treatment 24 hours after infection): 0 lg TCID50 | HCV titers (lg TCID50 for SPEV cell cultures) in medium samples (SPEV, Day 4, 0.5 μg/mL, treatment 24 hours before infection): 3.8 lg TCID50 | HCV titers (lg TCID50 for SPEV cell cultures) in medium samples (SPEV, Day 4, 0.5 μg/mL, treatment at the time of infection): 4.1 lg TCID50 | HCV titers (lg TCID50 for SPEV cell cultures) in medium samples (SPEV, Day 4, 5.0 μg/mL, treatment 24 hours after infection): 0 lg TCID50 | HCV titers (lg TCID50 for SPEV cell cultures) in medium samples (SPEV, Day 4, 5.0 μg/mL, treatment 24 hours before infection): 3.4 lg TCID50 | HCV titers (lg TCID50 for SPEV cell cultures) in medium samples (SPEV, Day 4, 5.0 μg/mL, treatment at the time of infection): 5.5 lg TCID50 | HCV titers (lg TCID50 for SPEV cell cultures) in medium samples (SPEV, Day 4, 50.0 μg/mL, treatment 24 hours after infection): 2.6 lg TCID50 | HCV titers (lg TCID50 for SPEV cell cultures) in medium samples (SPEV, Day 4, 50.0 μg/mL, treatment 24 hours before infection): 3.8 lg TCID50 | HCV titers (lg TCID50 for SPEV cell cultures) in medium samples (SPEV, Day 4, 50.0 μg/mL, treatment at the time of infection): 5.0 lg TCID50 | HCV titers (lg TCID50 for SPEV cell cultures) in medium samples (SPEV, Day 4, 500.0 μg/mL, treatment 24 hours after infection): 0 lg TCID50 | HCV titers (lg TCID50 for SPEV cell cultures) in medium samples (SPEV, Day 4, 500.0 μg/mL, treatment 24 hours before infection): 3.8 lg TCID50 | HCV titers (lg TCID50 for SPEV cell cultures) in medium samples (SPEV, Day 4, 500.0 μg/mL, treatment at the time of infection): 4.2 lg TCID50 | HCV titers (lg TCID50 for SPEV cell cultures) in medium samples (SPEV, Day 5, 0.005 μg/mL, treatment 24 hours after infection): 0 lg TCID50 | HCV titers (lg TCID50 for SPEV cell cultures) in medium samples (SPEV, Day 5, 0.005 μg/mL, treatment 24 hours before infection): 4.5 lg TCID50 | HCV titers (lg TCID50 for SPEV cell cultures) in medium samples (SPEV, Day 5, 0.005 μg/mL, treatment at the time of infection): 5.5 lg TCID50 | HCV titers (lg TCID50 for SPEV cell cultures) in medium samples (SPEV, Day 5, 0.05 μg/mL, treatment 24 hours after infection): 1.8 lg TCID50 | HCV titers (lg TCID50 for SPEV cell cultures) in medium samples (SPEV, Day 5, 0.05 μg/mL, treatment 24 hours before infection): 4.5 lg TCID50 | HCV titers (lg TCID50 for SPEV cell cultures) in medium samples (SPEV, Day 5, 0.05 μg/mL, treatment at the time of infection): 5.0 lg TCID50 | HCV titers (lg TCID50 for SPEV cell cultures) in medium samples (SPEV, Day 5, 0.5 μg/mL, treatment 24 hours after infection): 0 lg TCID50 | HCV titers (lg TCID50 for SPEV cell cultures) in medium samples (SPEV, Day 5, 0.5 μg/mL, treatment 24 hours before infection): 4.5 lg TCID50 | HCV titers (lg TCID50 for SPEV cell cultures) in medium samples (SPEV, Day 5, 0.5 μg/mL, treatment at the time of infection): 5.5 lg TCID50 | HCV titers (lg TCID50 for SPEV cell cultures) in medium samples (SPEV, Day 5, 5.0 μg/mL, treatment 24 hours after infection): 0 lg TCID50 | HCV titers (lg TCID50 for SPEV cell cultures) in medium samples (SPEV, Day 5, 5.0 μg/mL, treatment 24 hours before infection): 4.5 lg TCID50 | HCV titers (lg TCID50 for SPEV cell cultures) in medium samples (SPEV, Day 5, 5.0 μg/mL, treatment at the time of infection): 5.5 lg TCID50 | HCV titers (lg TCID50 for SPEV cell cultures) in medium samples (SPEV, Day 5, 50.0 μg/mL, treatment 24 hours after infection): 2.8 lg TCID50 | HCV titers (lg TCID50 for SPEV cell cultures) in medium samples (SPEV, Day 5, 50.0 μg/mL, treatment 24 hours before infection): 4.5 lg TCID50 | HCV titers (lg TCID50 for SPEV cell cultures) in medium samples (SPEV, Day 5, 50.0 μg/mL, treatment at the time of infection): 7.0 lg TCID50 | HCV titers (lg TCID50 for SPEV cell cultures) in medium samples (SPEV, Day 5, 500.0 μg/mL, treatment 24 hours after infection): 0 lg TCID50 | HCV titers (lg TCID50 for SPEV cell cultures) in medium samples (SPEV, Day 5, 500.0 μg/mL, treatment 24 hours before infection): 6.0 lg TCID50 | HCV titers (lg TCID50 for SPEV cell cultures) in medium samples (SPEV, Day 5, 500.0 μg/mL, treatment at the time of infection): 5.5 lg TCID50 | suppression of HCV infectious activity (SPEV, Day 5 after infection and simultaneous treatment of the cells): 2.2-2.7 lg TCID50/20 μg | suppression of the production of HCV compared with the control (SPEV, medium collected on Day 5 after infection): 2.2 lg TCID50/20 μg | HCV replication in SPEV cell cultures (added to the cultures 24 hours after infection): significantly suppresses
